Experimental findings from ChEMBL document CHEMBL1201862, “PubChem BioAssay data set” (2004) are described below.

Among the test systems are DU-145; MDA-MB-231; BT-549; DMS-273; LXFL 529; RXF 631; DMS-114; SNB-78; M19-MEL.
Common to all, as to assay: NCI-60 cell line screen, 48 h

Each structure is given as a SMILES string.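 How tested: cells in 96-well plates exposed to compound for 48 hours at five concentrations. GI50 = concentration required for 50% inhibition of growth.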 Calls of active or inactive are those of the source. No stated cut-off is given here; in the data, active = GI50 up to about 1.1 µM and inactive = higher. Non-standard residues stand in square brackets, D forms with d. Residues, ends and D or L forms follow the SMILES beside them. ξ: configuration not given here. Pen = CC(C)(S)[C@H](N)C(=O)O; ξL = CC(C)CC(N)C(=O)O

Regarding `Cc1cccc(C)c1NC(=O)Nc1ccc(S(N)(=O)=O)cc1`, the GI50 with DU-145, in the test on MDA-MB-231 and in the test on BT-549 was > 100 µM (inactive) throughout.

For `CCOC(=O)C(=O)NC12CC3CC(CC(C3)C1)C2`, the GI50 with DMS-273, in the test on LXFL 529, in the test on RXF 631 and in the test on DMS-114 was > 100 µM (inactive) each time.

Consider `Cc1ccc(S(=O)(=O)NC(=O)OC23COCN2COC3)cc1`, for which the GI50 with DU-145, in the test with MDA-MB-231 and in the test with BT-549 was > 100 µM (inactive) throughout.

In the case of `c1ccc(OCc2nnc(CCCCCCCCc3nnc(COc4ccccc4)o3)o2)cc1`, the GI50 in the test with DU-145 was > 100 µM (inactive); in the test on MDA-MB-231 it was 47.6 µM (inactive); with BT-549 it was > 100 µM (inactive).

For `CN1C(=O)CC(=O)N1/C(=C/c1ccccc1)c1ccccc1`, the GI50 in the test with DU-145 is > 100 µM (inactive); with MDA-MB-231, 12.6 µM (inactive); with BT-549 it was > 100 µM (inactive).

As to `CN(C)CCNC(=O)c1cc(Cl)cc2cc3ccccc3nc12`, the GI50 in the test on DMS-273 was 0.733 µM (active); with SNB-78 it was 1.97 µM (inactive); with DMS-114, 0.792 µM (active); in the test on M19-MEL, 1.3 µM (inactive).

As to `Cc1ccc2c3c1[C@@H]1O[C@@H]1c1cccc(c1-3)[C@@H]1O[C@H]21`, the GI50 in the test on DU-145 is 11 µM (inactive); in the test on MDA-MB-231, 18 µM (inactive); with BT-549, 17.9 µM (inactive).

For the compound `CCOC(=O)/C=C/c1c[nH]c(C(=O)OCC)c1`, the GI50 was > 100 µM (inactive) in the test on DMS-273, > 86.1 µM (inactive) with SNB-78, > 100 µM (inactive) with DMS-114 and > 100 µM (inactive) in the test with M19-MEL.

Consider `O=C(OCc1ccccc1)OOC(=O)OCc1ccccc1`, for which the GI50 in the test on LXFL 529, in the test with SNB-78, in the test with DMS-114 and with M19-MEL was > 100 µM (inactive) each time.

On to `C=C1C[C@@H](O)C[C@@]2(C)C[C@@H]3OC(=O)C(=C)[C@@H]3C[C@H]12`, for which the GI50 in the test with DMS-273 was 5.35 µM (inactive); with SNB-78, 7.69 µM (inactive); in the test on DMS-114, 8.73 µM (inactive); in the test with M19-MEL, 20.4 µM (inactive).

As for `COC(=O)C1C(O)C(C)C(O)C(C)(O)/C=C\C=C(C)C(=O)Nc2c(C)c(OC(C)=O)c3c(c2O)C(=O)C(C)=C2OCOC(=C23)C(C)=CC(C)(O)C(O)C(C)C1OC(C)=O` (stereo not given), the GI50 in the test with DMS-273 was 44 µM (inactive); with SNB-78, 44.6 µM (inactive); with DMS-114 it was 16.1 µM (inactive); in the test with M19-MEL, 17.3 µM (inactive).

Take `CC[C@H]1CN2CCc3cc(OC)c(OC)cc3[C@@H]2C[C@@H]1C[C@H]1NCCc2cc(O)c(OC)cc21`: the GI50 was 0.0344 µM (active) in the test with DMS-273, 0.025 µM (active) in the test with DMS-114 and 0.0253 µM (active) with M19-MEL.

Turning to `COc1ccc(C(=C2C(=O)N(c3ccccc3)C(=O)C2=C(C)C)c2ccc(OC)cc2)cc1`, the GI50 is 6.14 µM (inactive) with DU-145, 5.09 µM (inactive) with MDA-MB-231 and 12.4 µM (inactive) in the test with BT-549.

Consider `N/N=C(\C(=O)Nc1c(Cl)cc([N+](=O)[O-])cc1Cl)C(c1cnc2ccc([N+](=O)[O-])cc2n1)[N+](=O)[O-]` (stereo not given), for which the GI50 in the test with DMS-273 was 38.6 µM (inactive); in the test on SNB-78, 40.4 µM (inactive); with DMS-114, 36.3 µM (inactive); in the test on M19-MEL, > 100 µM (inactive).

As for `Cc1ccc(C(=O)Cc2nc3c([nH]c2=O)c(C)nn3-c2ccccc2)c(C)c1`, the GI50 in the test on DU-145, in the test with MDA-MB-231 and in the test on BT-549 was > 10 µM (inactive) throughout.

With `COc1ccc(/C=C2\C[C@H]3[C@@H]4CCC5=C/C(=N/O)CC[C@]5(C)[C@H]4CC[C@]3(C)\C2=N\O)cc1OC`, the GI50 was 63.4 µM (inactive) in the test on DU-145 and 57.8 µM (inactive) in the test with BT-549.

On to `CCOC(=O)C1=NN(c2ccc(Cl)cc2)C2=CC(C)=NN(C)C(=S)N21`, for which the results for the GI50 in the test on DU-145 and with MDA-MB-231 were 79.3 µM (inactive) and 44.5 µM (inactive), respectively.

On to `CCOC(=O)CNC(=O)NC12CC3CC(CC(C3)C1)C2`, for which the GI50 was 223 µM (inactive) with DMS-273, 221 µM (inactive) in the test with SNB-78, 179 µM (inactive) in the test on DMS-114 and 111 µM (inactive) in the test with M19-MEL.

As to `CC(=C(c1ccccc1)c1ccccc1)N1C(=O)CC(=O)N1C`, the GI50 with DU-145 is > 100 µM (inactive); in the test with BT-549 it was 34.8 µM (inactive).

In the case of `COc1cccc(N2C(=O)CSC2c2cccc(Oc3ccccc3)c2)c1` (stereo not given), the GI50 in the test with DU-145 is 20.4 µM (inactive); in the test with MDA-MB-231, 7.78 µM (inactive); with BT-549, 12.3 µM (inactive).

On to `Cc1ccnc2nc(N)ccc12`, for which the GI50 with DU-145, with MDA-MB-231 and with BT-549 was > 100 µM (inactive) in each case.

With `C=CCc1cccc2cc(C(=O)Nc3ccc(C)cc3)c(=N)oc12`, the GI50 in the test with DU-145, in the test with MDA-MB-231 and in the test on BT-549 was > 100 µM (inactive) in each case.

With `CCCCCCSc1nc(N)nc2nc[nH]c12`, the figures for the GI50 in the test with DMS-273, with SNB-78 and in the test on M19-MEL were 43.7 µM (inactive), 38.5 µM (inactive) and 47.1 µM (inactive), respectively.

On to `O=C(CC/C=C(/CS(=O)(=O)c1ccccc1)S(=O)(=O)c1ccccc1)c1ccccc1`, for which the GI50 with DMS-273 was > 100 µM (inactive); with DMS-114, 21.7 µM (inactive).

For the compound `CC(=O)OCC1OC(Nc2ncc(-c3ccc(C)cc3)s2)C(OC(C)=O)C(OC(C)=O)C1OC(C)=O` (stereo not given), the GI50 with DMS-273 is > 58.9 µM (inactive); in the test with SNB-78, 40.8 µM (inactive); with DMS-114, 35.6 µM (inactive); with M19-MEL, 18.8 µM (inactive).

For `COc1ccc2c(c1)c1c(n2CCN(C)C)-c2ccccc2CC1`, the figures for the GI50 in the test with DU-145, in the test with MDA-MB-231 and with BT-549 were 15.9 µM (inactive), 13.6 µM (inactive) and 16.9 µM (inactive), respectively.

`C[Si](C)(C)/C(I)=C/CO`: the GI50 is 20.6 µM (inactive) with DMS-273; 34.6 µM (inactive) with LXFL 529; 28.6 µM (inactive) in the test with SNB-78; 26.4 µM (inactive) in the test on RXF 631; 20.8 µM (inactive) with M19-MEL.

For `O=C1C2C3C=C4c5ccccc5N(c5ccccc5)C4(C2C(=O)N1Cc1ccccc1)C1C(=O)N(Cc2ccccc2)C(=O)C31` (stereo not given), the GI50 was > 100 µM (inactive) in the test on LXFL 529; > 100 µM (inactive) with SNB-78; > 100 µM (inactive) in the test with RXF 631; > 100 µM (inactive) with DMS-114; 70.3 µM (inactive) with M19-MEL.

As to `CCOC(=O)C1(C(F)(F)F)N=C(CC)OC(N2CCOCC2)=N1` (stereo not given), the GI50 in the test with DU-145, in the test on MDA-MB-231 and in the test on BT-549 was > 100 µM (inactive) throughout.

Turning to `C[n+]1[se]c2ccccc2c1Cl`, the GI50 is 20 µM (inactive) in the test on DMS-273; 28.1 µM (inactive) in the test with LXFL 529; 27.8 µM (inactive) with SNB-78; 25.1 µM (inactive) in the test with RXF 631; 35.3 µM (inactive) in the test with DMS-114; 10.3 µM (inactive) with M19-MEL.

As for `O=S1(=O)CC#CC[C@@H](CO)[C@@H](CO)CC#CC1`, the GI50 in the test with LXFL 529 is 71.3 µM (inactive); with SNB-78, > 100 µM (inactive); in the test on M19-MEL, 47.1 µM (inactive).

Regarding `C=C(CS(=O)(=O)c1ccccc1)[P+](c1ccccc1)(c1ccccc1)c1ccccc1`, the GI50 was 16.4 µM (inactive) in the test with DMS-273, 38 µM (inactive) in the test with SNB-78, 21.6 µM (inactive) in the test on DMS-114 and 17.3 µM (inactive) in the test with M19-MEL.

As to `CC1(C)CN=C(Nc2ccc(F)cc2)S1`, the GI50 in the test with DU-145 and in the test on BT-549 was > 100 µM (inactive) each time.

With `Cc1cc(=O)n2nc(CCl)sc2n1`, the GI50 was 18.1 µM (inactive) in the test on DU-145, 20.7 µM (inactive) with MDA-MB-231 and 3.58 µM (inactive) in the test on BT-549.

For `CN(C1=NCCO1)c1cccc2ccccc12`, the GI50 with DU-145 and in the test with MDA-MB-231 was > 10 µM (inactive) throughout.

For the compound `Cc1cc(O)c2c(c1O)C(=O)C13C(=C(O)C4C(O)C1C1C(O)C3C(O)=C3C(=O)c5c(O)cc(C)c(O)c5C(=O)C341)C2=O` (stereo not given), the GI50 with DMS-273 was 0.0962 µM (active); in the test with SNB-78, 0.0803 µM (active); in the test with DMS-114 it was 0.0146 µM (active); in the test with M19-MEL, 0.0545 µM (active).

For the compound `O=C(O)C(F)(F)C(F)(F)C(F)(F)C(F)(F)C(F)(F)C(F)(F)C(F)(F)C(F)(F)F`, the GI50 in the test with DU-145 was 47.6 µM (inactive); in the test on MDA-MB-231, 46.2 µM (inactive); in the test with BT-549, 49.1 µM (inactive).

As for `COC(=O)C(/C(=N/NC(N)=S)C(=O)Nc1ccccc1[N+](=O)[O-])c1cnc2ccccc2n1` (stereo not given), the GI50 in the test with DMS-273, in the test with LXFL 529, in the test on SNB-78, with RXF 631, with DMS-114 and with M19-MEL was > 100 µM (inactive) each time.

As to `Cc1cc(=O)nc(S(=O)(=O)NC(=S)Nc2ccc(Cl)cc2)[nH]1`, the GI50 with DU-145, with MDA-MB-231 and in the test with BT-549 was > 100 µM (inactive) each time.

As to `CC12CCC(=O)[C@@]1(C)CCCC2O` (stereo not given in full), the GI50 in the test with DU-145, in the test with MDA-MB-231 and in the test on BT-549 was > 100 µM (inactive) in each case.

For `C[S+](C)CC1OC(n2cnc3c(N)ncnc32)C(O)C1O` (stereo not given), the GI50 is > 225 µM (inactive) in the test with DMS-273, > 225 µM (inactive) in the test on SNB-78, > 225 µM (inactive) in the test with DMS-114 and > 179 µM (inactive) with M19-MEL.

For `O=C(O)c1ccc(C(=O)O)c2c(C(=O)O)ccc(C(=O)O)c12`, the GI50 in the test with DU-145 and in the test on MDA-MB-231 was > 100 µM (inactive) in each case.

In the case of `CSCC[C@H](NC(=O)C(CC(C)C)NC(=O)[C@H](Cc1c[nH]cn1)NC(=O)CNC(=O)[C@@H](NC(=O)[C@@H](C)NC(=O)[C@H](Cc1c[nH]c2ccccc12)NC(=O)[C@H](CCC(N)=O)NC(=O)[C@@H](N)CC(N)=O)C(C)(C)SC)C(N)=O` (stereo not given in full) (H-NQW[dA][Pen](Me)GH[ξL]M-NH2), the GI50 in the test with DMS-273, in the test with SNB-78, with DMS-114 and with M19-MEL was > 100 µM (inactive) throughout.
